Our source for the IC50, EC50 and AC50 values is ChEMBL document CHEMBL1201862, “PubChem BioAssay data set” (2004).

The nature of assay [1]: cells.
The nature of assay [2]: Luminescence-based counterscreen assay for KLF5 inhibitors: dose response cell-based high throughput screening assay to identify cytotoxic compounds using the IEC-6 intestinal epithelial cell line. [Related pubchem assays: 1700 (Primary screen.), 1834 (Confirmation screen.), 1858 (Summary AID.), 1905 (Counterscreen.)]. It is filed as functional. A general note: A counterscreen serves to expose hits that act by an unwanted route or on another target.

Assay [3] deals with T1, Oxysterols receptor LXR-beta (Homo sapiens, UniProt P55055).
T1 sequence (P55055 whole entry): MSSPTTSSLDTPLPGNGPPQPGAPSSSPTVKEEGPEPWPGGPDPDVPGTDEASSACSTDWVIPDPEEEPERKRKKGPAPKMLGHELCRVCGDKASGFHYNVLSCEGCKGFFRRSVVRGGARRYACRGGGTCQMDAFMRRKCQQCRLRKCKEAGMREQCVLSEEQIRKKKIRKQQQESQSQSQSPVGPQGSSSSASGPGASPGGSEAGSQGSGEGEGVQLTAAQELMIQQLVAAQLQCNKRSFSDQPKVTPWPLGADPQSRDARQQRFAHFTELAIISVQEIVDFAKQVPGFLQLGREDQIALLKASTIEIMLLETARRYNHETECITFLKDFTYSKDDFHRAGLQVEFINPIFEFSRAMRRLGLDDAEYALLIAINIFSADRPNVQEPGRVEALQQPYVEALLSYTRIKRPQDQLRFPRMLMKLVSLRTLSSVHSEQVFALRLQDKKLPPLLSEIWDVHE
It is filed as functional, cell-based.

Assay [4] concerns the target T2, Nuclear receptor subfamily 0 group B member 1 (Homo sapiens, UniProt P51843).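 Note: HEK293T cells transfected with SF-1 and DAX-1 plus StAR promoter luciferase reporter.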
T2 sequence (P51843 whole entry): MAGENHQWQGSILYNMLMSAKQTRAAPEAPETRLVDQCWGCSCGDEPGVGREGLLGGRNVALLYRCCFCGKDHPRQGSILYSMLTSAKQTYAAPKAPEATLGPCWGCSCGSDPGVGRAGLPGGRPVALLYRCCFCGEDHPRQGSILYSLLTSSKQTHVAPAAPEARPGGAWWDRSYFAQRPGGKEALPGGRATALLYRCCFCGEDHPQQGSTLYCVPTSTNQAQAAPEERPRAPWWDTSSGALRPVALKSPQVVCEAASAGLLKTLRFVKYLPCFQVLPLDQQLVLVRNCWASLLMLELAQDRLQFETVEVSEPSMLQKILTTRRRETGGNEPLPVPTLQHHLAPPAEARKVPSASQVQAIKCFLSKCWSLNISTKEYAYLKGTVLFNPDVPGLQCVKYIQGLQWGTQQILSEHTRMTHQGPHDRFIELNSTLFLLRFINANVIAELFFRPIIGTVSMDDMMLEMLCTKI
It is filed as functional, cell-based.

The nature of assay [5]: cells. It is filed as functional, cell-based.
Assay [6] can be described thus: cells. This is another data set of the same source.
A short description of assay [7]: A cytotoxicity screen of small molecule inhibitors of the PhoP region in Salmonella typhi identified in the primary screen. [Related pubchem assays: 1850, 1864, 1985 ]. The class given is functional.
For assay [8], the target named is T3, Mannose-6-phosphate isomerase (Homo sapiens, UniProt P34949).
T3 sequence (P34949 whole entry): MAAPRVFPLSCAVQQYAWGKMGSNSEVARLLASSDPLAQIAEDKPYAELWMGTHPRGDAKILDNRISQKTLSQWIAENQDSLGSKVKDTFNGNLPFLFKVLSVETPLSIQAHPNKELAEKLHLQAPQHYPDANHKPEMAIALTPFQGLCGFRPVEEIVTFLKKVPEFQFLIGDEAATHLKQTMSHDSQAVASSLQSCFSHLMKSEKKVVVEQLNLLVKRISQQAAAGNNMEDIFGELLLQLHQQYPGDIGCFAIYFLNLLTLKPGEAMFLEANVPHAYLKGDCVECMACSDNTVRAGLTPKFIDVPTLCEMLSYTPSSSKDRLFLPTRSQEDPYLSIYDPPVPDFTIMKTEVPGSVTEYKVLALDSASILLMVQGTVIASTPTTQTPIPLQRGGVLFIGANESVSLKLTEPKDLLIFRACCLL
The assay can be described thus: inhibitors of human PMI, primary screen, biochemical, fluorescence intensity, coupled assay (AID 1209).

Assay [9] concerns the target T4, Alkaline phosphatase, tissue-nonspecific isozyme (Homo sapiens, UniProt P05186).
T4 sequence (P05186 whole entry): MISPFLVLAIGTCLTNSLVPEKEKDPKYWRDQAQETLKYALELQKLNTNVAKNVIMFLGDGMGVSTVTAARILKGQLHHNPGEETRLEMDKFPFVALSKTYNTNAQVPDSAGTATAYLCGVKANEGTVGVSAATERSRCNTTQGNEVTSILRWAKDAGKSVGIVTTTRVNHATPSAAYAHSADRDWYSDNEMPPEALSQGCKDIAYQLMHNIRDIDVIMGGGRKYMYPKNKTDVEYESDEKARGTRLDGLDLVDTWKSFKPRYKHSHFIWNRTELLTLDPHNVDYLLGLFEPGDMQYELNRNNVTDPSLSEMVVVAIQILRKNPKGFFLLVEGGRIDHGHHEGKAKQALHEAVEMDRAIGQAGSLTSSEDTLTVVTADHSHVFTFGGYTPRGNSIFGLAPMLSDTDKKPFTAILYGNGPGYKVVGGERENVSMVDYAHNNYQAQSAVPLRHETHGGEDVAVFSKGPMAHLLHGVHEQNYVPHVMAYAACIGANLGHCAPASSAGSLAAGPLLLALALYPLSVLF
Nature of the assay: human TNAP enzyme inhibitors, SAR follow-up, biochemical, luminescent, dose response (AID 1056).

The target of assay [10] is Glyceraldehyde-3-phosphate dehydrogenase (Homo sapiens, UniProt P04406).
Sequence of Glyceraldehyde-3-phosphate dehydrogenase (P04406 whole entry): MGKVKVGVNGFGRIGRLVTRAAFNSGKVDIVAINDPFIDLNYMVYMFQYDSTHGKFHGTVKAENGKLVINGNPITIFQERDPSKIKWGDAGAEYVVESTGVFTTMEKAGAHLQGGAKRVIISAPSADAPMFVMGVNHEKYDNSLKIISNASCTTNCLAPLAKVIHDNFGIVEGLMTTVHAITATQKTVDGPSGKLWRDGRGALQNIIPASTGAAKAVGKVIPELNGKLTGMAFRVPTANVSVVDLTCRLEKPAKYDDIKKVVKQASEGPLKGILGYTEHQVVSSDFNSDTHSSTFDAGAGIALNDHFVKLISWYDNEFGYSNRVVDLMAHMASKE
In assay [11] the target is Alkaline phosphatase, placental type (Homo sapiens, UniProt P05187). The assay can be described thus: PLAP enzyme inhibitors, confirmation, biochemical, luminescence (AID 1512). It is filed as functional.
Sequence of Alkaline phosphatase, placental type (P05187 whole entry): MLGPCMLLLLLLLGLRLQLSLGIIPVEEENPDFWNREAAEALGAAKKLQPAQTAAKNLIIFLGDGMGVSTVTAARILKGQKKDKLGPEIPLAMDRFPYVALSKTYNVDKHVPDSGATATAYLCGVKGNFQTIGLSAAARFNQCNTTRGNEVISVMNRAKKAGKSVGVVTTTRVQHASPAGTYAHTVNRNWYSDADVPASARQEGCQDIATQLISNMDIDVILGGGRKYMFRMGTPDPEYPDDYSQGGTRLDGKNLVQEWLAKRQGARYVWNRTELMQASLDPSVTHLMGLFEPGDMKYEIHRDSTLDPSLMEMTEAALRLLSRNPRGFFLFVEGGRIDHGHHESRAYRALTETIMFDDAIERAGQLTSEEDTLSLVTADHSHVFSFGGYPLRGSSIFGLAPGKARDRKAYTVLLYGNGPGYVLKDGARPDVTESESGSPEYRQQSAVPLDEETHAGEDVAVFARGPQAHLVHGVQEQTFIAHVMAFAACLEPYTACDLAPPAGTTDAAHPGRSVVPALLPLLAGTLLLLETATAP
Assay [12] can be described thus: inhibitors of Bluetongue virus cytopathic effect, confirmation, arbovirus, BSR cells (AID 1250).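 Note: protection from viral cytopathic effect measured as cell viability by ATP luminescence.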 The class given is functional. In general terms: Damage to the host cells serves as the signal in cytopathic effect assays.
The next assay deals with T5, Aspartyl aminopeptidase (Plasmodium falciparum 3D7, UniProt Q8I2J3).
T5 sequence (Q8I2J3 whole entry): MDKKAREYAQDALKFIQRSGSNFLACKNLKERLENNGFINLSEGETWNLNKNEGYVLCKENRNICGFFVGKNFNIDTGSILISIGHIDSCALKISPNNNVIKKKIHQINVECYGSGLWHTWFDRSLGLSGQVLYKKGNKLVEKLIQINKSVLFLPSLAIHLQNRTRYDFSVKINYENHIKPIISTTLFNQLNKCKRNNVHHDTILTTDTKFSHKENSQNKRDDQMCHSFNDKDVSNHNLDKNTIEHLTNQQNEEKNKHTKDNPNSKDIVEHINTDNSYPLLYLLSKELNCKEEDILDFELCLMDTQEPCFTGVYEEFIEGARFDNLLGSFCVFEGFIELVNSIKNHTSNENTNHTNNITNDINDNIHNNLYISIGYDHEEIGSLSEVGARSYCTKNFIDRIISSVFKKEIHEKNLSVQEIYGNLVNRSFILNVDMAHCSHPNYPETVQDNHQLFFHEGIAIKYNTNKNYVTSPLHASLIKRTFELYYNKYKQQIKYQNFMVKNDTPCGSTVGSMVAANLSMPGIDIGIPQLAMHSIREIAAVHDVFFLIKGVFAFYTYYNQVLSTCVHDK

A further assay addresses Procathepsin L (Homo sapiens, UniProt P07711).
A further assay addresses T6, Estrogen receptor (Homo sapiens, UniProt P03372).
T6 sequence (P03372 whole entry): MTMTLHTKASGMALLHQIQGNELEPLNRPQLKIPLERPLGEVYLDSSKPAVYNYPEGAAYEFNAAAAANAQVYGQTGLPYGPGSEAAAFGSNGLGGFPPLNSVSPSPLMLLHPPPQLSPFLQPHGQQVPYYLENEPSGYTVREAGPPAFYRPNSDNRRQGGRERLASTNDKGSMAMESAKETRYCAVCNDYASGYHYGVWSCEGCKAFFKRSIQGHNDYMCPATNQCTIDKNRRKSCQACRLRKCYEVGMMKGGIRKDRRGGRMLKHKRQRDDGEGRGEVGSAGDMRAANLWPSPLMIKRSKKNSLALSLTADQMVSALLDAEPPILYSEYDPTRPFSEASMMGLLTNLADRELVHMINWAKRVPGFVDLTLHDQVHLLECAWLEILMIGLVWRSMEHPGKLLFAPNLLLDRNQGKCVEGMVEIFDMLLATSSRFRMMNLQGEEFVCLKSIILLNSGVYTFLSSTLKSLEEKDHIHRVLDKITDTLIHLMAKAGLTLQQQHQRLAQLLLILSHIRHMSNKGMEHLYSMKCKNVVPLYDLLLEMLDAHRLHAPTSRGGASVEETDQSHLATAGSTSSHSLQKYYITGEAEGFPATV

In the next assay the target is Cytochrome P450 3A4 (Homo sapiens, UniProt P08684).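 Note: CYP3A4 tested as one member of a cytochrome P450 panel screen.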
Sequence of Cytochrome P450 3A4 (P08684 whole entry): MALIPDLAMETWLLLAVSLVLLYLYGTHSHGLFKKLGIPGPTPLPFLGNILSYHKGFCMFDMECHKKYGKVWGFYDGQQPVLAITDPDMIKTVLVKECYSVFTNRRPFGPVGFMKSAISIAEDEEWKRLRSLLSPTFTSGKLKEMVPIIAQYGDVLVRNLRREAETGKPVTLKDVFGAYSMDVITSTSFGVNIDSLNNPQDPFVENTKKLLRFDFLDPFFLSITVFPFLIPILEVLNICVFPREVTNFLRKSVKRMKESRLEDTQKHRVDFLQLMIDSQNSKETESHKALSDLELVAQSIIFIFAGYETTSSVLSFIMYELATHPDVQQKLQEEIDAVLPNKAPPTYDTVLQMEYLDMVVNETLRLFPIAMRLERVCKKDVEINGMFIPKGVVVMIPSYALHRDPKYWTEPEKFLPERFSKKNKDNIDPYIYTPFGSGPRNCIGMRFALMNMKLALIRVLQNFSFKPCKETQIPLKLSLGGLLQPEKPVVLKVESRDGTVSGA
In a further assay the target is T7, Cytochrome P450 1A2 (Homo sapiens, UniProt P05177).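 Note: PubChem cytochrome P450 panel assay, CYP1A2 panel member.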
T7 sequence (P05177 whole entry): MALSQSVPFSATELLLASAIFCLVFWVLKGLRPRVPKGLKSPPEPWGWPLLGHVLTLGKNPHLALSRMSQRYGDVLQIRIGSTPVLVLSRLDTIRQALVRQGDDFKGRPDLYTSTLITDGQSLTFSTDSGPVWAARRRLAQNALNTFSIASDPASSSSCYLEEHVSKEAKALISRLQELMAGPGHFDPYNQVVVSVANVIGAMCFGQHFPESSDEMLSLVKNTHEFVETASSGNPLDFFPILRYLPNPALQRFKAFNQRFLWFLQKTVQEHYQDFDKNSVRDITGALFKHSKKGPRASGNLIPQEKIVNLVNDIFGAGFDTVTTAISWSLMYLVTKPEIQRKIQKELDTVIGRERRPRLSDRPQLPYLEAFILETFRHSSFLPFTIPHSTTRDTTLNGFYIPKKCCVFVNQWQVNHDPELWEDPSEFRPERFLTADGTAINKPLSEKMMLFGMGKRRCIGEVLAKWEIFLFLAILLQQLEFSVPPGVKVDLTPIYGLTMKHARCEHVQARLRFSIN

The next assay addresses Cytochrome P450 2C9 (Homo sapiens, UniProt P11712).
Assay [13] deals with BJ. The assay can be described thus: cells. It is filed as functional, cell-based. As to conditions: Homo sapiens.
For assay [14], the target named is Luciferin 4-monooxygenase (Photinus pyralis, UniProt P08659). Nature of the assay: firefly luciferase enzyme inhibitors, dose response, biochemical, luminescence (AID 1891).
Sequence of Luciferin 4-monooxygenase (P08659 whole entry): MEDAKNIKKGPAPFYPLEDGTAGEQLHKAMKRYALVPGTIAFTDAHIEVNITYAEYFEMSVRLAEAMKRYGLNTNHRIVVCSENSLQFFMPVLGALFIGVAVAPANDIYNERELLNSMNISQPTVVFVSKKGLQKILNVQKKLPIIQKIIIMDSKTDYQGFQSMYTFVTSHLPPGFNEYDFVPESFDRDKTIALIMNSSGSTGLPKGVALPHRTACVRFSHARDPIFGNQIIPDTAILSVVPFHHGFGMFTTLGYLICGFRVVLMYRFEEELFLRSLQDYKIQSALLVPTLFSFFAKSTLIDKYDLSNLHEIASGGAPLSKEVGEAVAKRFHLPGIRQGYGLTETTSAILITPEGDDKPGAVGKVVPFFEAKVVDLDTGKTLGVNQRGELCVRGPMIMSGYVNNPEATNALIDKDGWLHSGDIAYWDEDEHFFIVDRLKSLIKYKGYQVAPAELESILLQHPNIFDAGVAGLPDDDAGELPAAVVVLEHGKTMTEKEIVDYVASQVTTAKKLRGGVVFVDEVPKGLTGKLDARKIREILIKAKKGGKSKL
Assay [15] can be described thus: cytotoxicity toward DRD oncogenic fibroblasts, dose response, cell-based, non-viral oncogenic, luminescence (AID 1934). To be noted: Homo sapiens. The class given is functional.
Assay [16] deals with BJ. Nature of the assay: cytotoxicity toward BJ-TERT fibroblasts, dose response, cell-based, RAS-independent, luminescence (AID 1933). It is filed as functional. To be noted: Homo sapiens.
The nature of assay [17]: Luminescence Cell-Based Dose Confirmation HTS to Identify Inhibitors of Platelet Dense Granule Release. [Related pubchem assays: 1663 (Primary HTS), 1678 (Summary of Project)]. It is filed as functional.
The subject of assay [18] is BJ. Nature of the assay: cytotoxicity toward BJ-TERT-LT-ST fibroblasts, dose response, cell-based, RAS-independent, luminescence (AID 1935).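 Note: BJ fibroblasts immortalized with TERT plus LT and ST oncogenes.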 As to conditions: Homo sapiens. It is filed as functional.

Structures are written as SMILES. Calls of active or inactive are those of the source. A value given as a limit tells only on which side of the number the result lay.

Sequence of Procathepsin L (P07711 whole entry): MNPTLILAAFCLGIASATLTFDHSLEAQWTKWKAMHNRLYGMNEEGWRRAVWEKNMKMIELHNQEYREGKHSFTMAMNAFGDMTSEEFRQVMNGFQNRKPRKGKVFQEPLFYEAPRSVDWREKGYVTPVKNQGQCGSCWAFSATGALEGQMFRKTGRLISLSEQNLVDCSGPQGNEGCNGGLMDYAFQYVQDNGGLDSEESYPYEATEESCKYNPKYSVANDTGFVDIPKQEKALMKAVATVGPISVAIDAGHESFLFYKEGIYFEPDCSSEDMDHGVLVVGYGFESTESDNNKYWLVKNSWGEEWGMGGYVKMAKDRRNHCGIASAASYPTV
Sequence of Cytochrome P450 2C9 (P11712 whole entry): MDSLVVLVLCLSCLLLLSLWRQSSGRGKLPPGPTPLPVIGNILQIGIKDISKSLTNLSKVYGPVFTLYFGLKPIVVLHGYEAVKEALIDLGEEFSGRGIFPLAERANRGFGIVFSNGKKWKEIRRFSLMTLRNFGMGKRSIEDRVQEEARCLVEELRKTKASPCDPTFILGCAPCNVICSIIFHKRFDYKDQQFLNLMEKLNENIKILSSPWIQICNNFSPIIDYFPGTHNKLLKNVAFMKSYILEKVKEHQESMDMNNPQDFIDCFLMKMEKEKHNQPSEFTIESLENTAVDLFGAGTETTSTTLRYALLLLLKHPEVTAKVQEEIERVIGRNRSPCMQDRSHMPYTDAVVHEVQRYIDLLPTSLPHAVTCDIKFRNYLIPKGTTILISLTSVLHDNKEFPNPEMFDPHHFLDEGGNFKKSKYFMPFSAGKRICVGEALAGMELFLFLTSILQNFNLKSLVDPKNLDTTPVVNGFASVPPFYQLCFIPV

Take `O=C(NCc1ccccc1Cl)C1CCN(S(=O)(=O)c2cccc3nonc23)CC1`: in “cells [1]”, the IC50 was 27.2 µM (active).
With `CCc1ccc(NC(=O)c2cnn3ccccc23)cc1`, the IC50 was > 39.8 µM (not active) in assay [2], > 0.0926 µM (active) in [4] and > 67.5 µM (inactive) in “cells [5]”. In addition, the EC50 (in assay [3]; in the assay “cells [6]”) was > 67.5 µM (inactive) each time.
Consider `COCCn1c(SCC(=O)Nc2nnc(C)s2)nnc1-c1c[nH]c2ccccc12`, for which the EC50 in assay [7] was > 50 µM (active).
Consider `CCOC(=O)c1ccc(N2C(=O)CC(SCC(=O)Nc3ccc(S(N)(=O)=O)cc3)C2=O)cc1` (configuration not stated), for which the IC50 in assay [8] is 28.1 µM (active).
On to `O=C(c1cc(-c2ccc(Cl)cc2Cl)n[nH]1)N1CCCC1`, for which the IC50 in assay [9] was 6.57 µM (active); in assay [10], > 100 µM (not active); in assay [11] it was > 100 µM (inactive).
With `CCOC(=O)c1c(-c2ccc(C)o2)csc1NC(=S)NC(=O)c1ccccc1Br`, the IC50 in assay [12] was 37.3 µM (active).
Consider `COc1cccc(-c2cc(C(=O)Nn3cnnc3)c3ccccc3n2)c1`, for which the half-maximal inhibitory concentration (IC50) on Aspartyl aminopeptidase was 1.87 µM (active); at Procathepsin L, > 59.6 µM (not active).
For `CN(Cc1nc(O)c2ccccc2n1)C(=O)c1cc(C2CC2)nn1-c1ccccc1`, in the assay “cells [1]”, the IC50 was 21.6 µM (active).
With `COc1cccc(/C=C2\N=C(c3c(-c4ccccc4)noc3C)OC2=O)c1OC`, the IC50 against Estrogen receptor is reported as > 50 µM (not active).
`Cc1nn(-c2cc(C(F)(F)F)ccc2Cl)c2nc(C(F)(F)F)nc(O)c12`: the IC50 in assay [12] was 22.5 µM (active).
For `Cc1cc(C)n(CC(O)COc2ccccc2)n1` (configuration not stated), the IC50 against Estrogen receptor is > 50 µM (not active). Further, the AC50 is 15.8 µM (inconclusive) on Cytochrome P450 3A4, 15.8 µM (inconclusive) on Cytochrome P450 1A2 and 0.0355 µM (inconclusive) on Cytochrome P450 2C9.
With `CC(C)CNC(=O)c1cc(-c2ccc(Cl)cc2Cl)n[nH]1`, in assay [10], the IC50 was > 10 µM (inconclusive).
In the case of `CN(CCO)c1ccc(/C=N/Nc2nncc3ccccc23)cc1`, the EC50 with BJ [13] was 10.8 µM (active); in assay [14], 0.67 µM (active); in assay [15], 4.01 µM (active); in the assay with BJ [16], > 150 µM (not active); in [17], 0.533 µM (active); in the assay with BJ [18], > 150 µM (not active). The IC50 in [2] was 24.7 µM (not active).
Take `Cc1cc(OCC(=O)Nn2cnnc2)ccc1Br`: the IC50 is 2.55 µM (active) at Aspartyl aminopeptidase and > 59.6 µM (not active) on Procathepsin L.
Take `Cc1cc(C)c2nc(N=C(N)NC(=O)c3ccccc3)nc(C)c2c1`: the EC50 in assay [7] is > 50 µM (active).

What is called IC50 is the concentration at which inhibition is half-maximal. In general, EC50 refers to the concentration giving half of the maximal effect. By AC50 is commonly meant the midpoint of the concentration-response curve, whichever way the signal moves.
